Results on 2 molecules are retold here after the SangsterLogP compilation.

This data set is described as follows: method code SF-AS, from PMID: 1438511.

For the setting “pH 8.0”, `c1ccc(OCc2cccc(CN3CCCOC3)c2)cc1` displayed a logD of 2.75.
As for `c1ccc(OCc2cccc(CN3CCCCCC3)c2)cc1`, the logP was 2.87.

The term logD denotes the decadic logarithm of the distribution of all forms, ionised or not, between an organic phase and buffer at a given pH. Lower therefore signals lower lipophilicity. In general, logP refers to the decadic logarithm of the partition coefficient of the neutral form, usually between octanol and water. A lower logP goes with lower lipophilicity.
